Laboratory results: ChEMBL document CHEMBL1201862, “PubChem BioAssay data set” (2004)
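Grown in 96-well plates, cells were treated for 48 hours with each compound at five concentrations. Insufficient inhibition: endpoint recorded as highest concentration tested. The concentration for 50% growth inhibition is given as GI50.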 The source made the active and inactive calls. Rule as the data show it: active = GI50 up to about 1.1 µM and inactive = higher.

Columns and labels:
Assay in all cases: DTP human tumour cell line panel, 48 h
[1] = system: NCI-H226
[2] = system: MDA-MB-435
[3] = system: NCI-H23
[4] = system: ACHN
[5] = system: MOLT-4
[6] = system: SK-MEL-28
[7] = system: PC-3
[8] = system: OVCAR-3
[9] = system: COLO 205
[10] = system: BT-549
[11] = system: K562
[12] = system: HCC 2998
[13] = system: Malme-3M
[14] = system: SK-MEL-2
[15] = system: HT-29
[16] = system: SF-295
[17] = system: SW-620
[18] = system: SNB-19
[19] = system: UO-31

| Structure (SMILES) | GI50 [1] | GI50 [2] | GI50 [3] | GI50 [4] | GI50 [5] | GI50 [6] | GI50 [7] | GI50 [8] | GI50 [9] | GI50 [10] | GI50 [11] | GI50 [12] | GI50 [13] | GI50 [14] | GI50 [15] | GI50 [16] | GI50 [17] | GI50 [18] | GI50 [19] |
| --- | --- | --- | --- | --- | --- | --- | --- | --- | --- | --- | --- | --- | --- | --- | --- | --- | --- | --- | --- |
| CCOC(=O)C(=CN1CCNC1=S)C(=O)OCC | > 100 µM (inactive) | > 100 µM (inactive) | > 100 µM (inactive) | > 100 µM (inactive) | > 100 µM (inactive) | > 100 µM (inactive) | > 100 µM (inactive) | 0.288 µM (active) | > 100 µM (inactive) | > 100 µM (inactive) | > 100 µM (inactive) | > 100 µM (inactive) | > 100 µM (inactive) | > 100 µM (inactive) | > 100 µM (inactive) | > 100 µM (inactive) | > 100 µM (inactive) |  |  |
| COC(=O)C1(C#N)C(C)(C)N=C(c2ccccc2)C12CCCCC2 (stereo not given) |  | > 100 µM (inactive) | > 100 µM (inactive) |  | 45.9 µM (inactive) | 82 µM (inactive) | 58.7 µM (inactive) | > 100 µM (inactive) | > 100 µM (inactive) | > 100 µM (inactive) | 59.7 µM (inactive) | > 100 µM (inactive) | > 100 µM (inactive) | > 100 µM (inactive) | > 100 µM (inactive) | 56.4 µM (inactive) | > 100 µM (inactive) | > 100 µM (inactive) | 75.7 µM (inactive) |
| CC(=O)Oc1ccc(/C=C/C(=O)O[C@H]2CCCC[C@@H]2OC(=O)/C=C/c2ccc(OC(C)=O)c(OC(C)=O)c2)cc1OC(C)=O |  | 10.4 µM (inactive) | 8.75 µM (inactive) | 5.83 µM (inactive) | 2.64 µM (inactive) | 12.8 µM (inactive) | 8.28 µM (inactive) | 4.74 µM (inactive) | 16.7 µM (inactive) | 13.2 µM (inactive) | 5.75 µM (inactive) | 13.8 µM (inactive) | 15.6 µM (inactive) | 15.3 µM (inactive) | 5.47 µM (inactive) | 4.37 µM (inactive) | 2.24 µM (inactive) | 4.71 µM (inactive) | 3.54 µM (inactive) |
| CC1(C)CC(=O)C(=CNc2nc(-c3ccc(Br)cc3)cs2)C(=O)C1 | 45.3 µM (inactive) | 25.6 µM (inactive) | 25.8 µM (inactive) | 37 µM (inactive) | 27.9 µM (inactive) | 34 µM (inactive) | 26.8 µM (inactive) | 22.3 µM (inactive) | 31.2 µM (inactive) | 17.7 µM (inactive) |  | 28.9 µM (inactive) |  | 19.4 µM (inactive) | 29.9 µM (inactive) | 39 µM (inactive) | 42.9 µM (inactive) | 33.5 µM (inactive) | 21.9 µM (inactive) |
| C1=N\CCNCCNCC/N=C\c2ccc(cc2)OCc2cccc(n2)COc2ccc/1cc2 | > 100 µM (inactive) | 75.2 µM (inactive) | 86.3 µM (inactive) | > 100 µM (inactive) | 29 µM (inactive) | > 100 µM (inactive) | 79.4 µM (inactive) | > 100 µM (inactive) | > 100 µM (inactive) | > 100 µM (inactive) | 34.1 µM (inactive) |  | > 100 µM (inactive) | > 100 µM (inactive) | > 100 µM (inactive) | > 100 µM (inactive) | 95.5 µM (inactive) | > 100 µM (inactive) | > 100 µM (inactive) |
| C(=N\NC1=NCCN1)/c1ccc(-c2cn3cc(/C=N/NC4=NCCN4)ccc3n2)cc1 |  | 24.5 µM (inactive) | > 100 µM (inactive) | 34.6 µM (inactive) | 5.35 µM (inactive) |  | 22.9 µM (inactive) | > 39.4 µM (inactive) | > 100 µM (inactive) | 18.2 µM (inactive) | 14.6 µM (inactive) | > 47.2 µM (inactive) | 2.82 µM (inactive) | > 100 µM (inactive) | 11.9 µM (inactive) | > 44.8 µM (inactive) | > 28.2 µM (inactive) | > 43.1 µM (inactive) | 46 µM (inactive) |
| CCOP(=O)(OCC)/C(=C/NC(=S)c1ccncc1)C(=O)OC | > 100 µM (inactive) | > 100 µM (inactive) | > 100 µM (inactive) | > 100 µM (inactive) | > 100 µM (inactive) |  | > 100 µM (inactive) | > 100 µM (inactive) | > 100 µM (inactive) | > 100 µM (inactive) | > 100 µM (inactive) | > 100 µM (inactive) |  | > 100 µM (inactive) | > 100 µM (inactive) | > 100 µM (inactive) | > 100 µM (inactive) | > 100 µM (inactive) | > 100 µM (inactive) |
| COc1ccc(O)c(/C=N\Nc2ccccc2)c1 | 20.6 µM (inactive) | 3.67 µM (inactive) | 10.3 µM (inactive) | 7.85 µM (inactive) | 1.39 µM (inactive) | 25.4 µM (inactive) | 45.2 µM (inactive) |  | 10.6 µM (inactive) | 6.32 µM (inactive) | 3.19 µM (inactive) | < 0.01 µM (active) |  | 4.8 µM (inactive) | 15.6 µM (inactive) |  | 5.41 µM (inactive) | 30.8 µM (inactive) | 4.14 µM (inactive) |
| COc1cc2cc(C(=O)N3CC(COS(C)(=O)=O)c4c3cc(N)c3ccccc43)[nH]c2c(OC)c1OC (stereo not given) | 0.0469 µM (active) | 0.0152 µM (active) | < 0.0179 µM (active) | < 0.01 µM (active) | 0.0149 µM (active) | 0.0266 µM (active) | 0.0422 µM (active) | 0.0404 µM (active) | 0.0244 µM (active) | 0.0187 µM (active) |  | 0.0148 µM (active) |  | 0.0716 µM (active) | < 0.01 µM (active) | 0.0195 µM (active) | 0.0148 µM (active) | < 0.0491 µM (active) | 0.0141 µM (active) |
| Cc1ccc2c(=O)c(-c3nnc(NC4CCCCC4)s3)c[nH]c2n1 | > 100 µM (inactive) | > 100 µM (inactive) | > 100 µM (inactive) | > 100 µM (inactive) | 61 µM (inactive) | > 100 µM (inactive) | > 100 µM (inactive) | > 100 µM (inactive) | > 100 µM (inactive) | > 100 µM (inactive) | > 100 µM (inactive) |  | > 100 µM (inactive) | > 100 µM (inactive) | > 100 µM (inactive) | 81.7 µM (inactive) | > 100 µM (inactive) | > 100 µM (inactive) | > 100 µM (inactive) |
| Cc1ccc(-c2sc(-c3ccc(C)cc3)c3c2C2CCC3C2)cc1 | > 50 µM (inactive) | > 50 µM (inactive) | > 50 µM (inactive) | > 50 µM (inactive) | > 50 µM (inactive) | > 50 µM (inactive) | > 50 µM (inactive) | > 50 µM (inactive) | > 50 µM (inactive) | > 50 µM (inactive) | > 50 µM (inactive) |  | > 50 µM (inactive) | > 50 µM (inactive) | > 50 µM (inactive) | > 50 µM (inactive) | > 50 µM (inactive) | > 50 µM (inactive) | > 50 µM (inactive) |
| CC(C)[C@H]1C(=O)O[B@-](F)(c2ccccc2)/[N+]1=C\N(C)C | > 100 µM (inactive) | > 100 µM (inactive) | > 100 µM (inactive) | > 100 µM (inactive) | > 100 µM (inactive) | > 100 µM (inactive) | > 100 µM (inactive) | > 100 µM (inactive) | > 100 µM (inactive) | > 100 µM (inactive) | > 100 µM (inactive) | > 100 µM (inactive) | > 100 µM (inactive) |  | > 100 µM (inactive) | > 100 µM (inactive) | > 100 µM (inactive) | > 100 µM (inactive) | > 100 µM (inactive) |
| COc1c(-c2ccccc2)oc2c(CP(=O)(OC)OC)cccc2c1=O |  | > 100 µM (inactive) | 68.2 µM (inactive) |  | > 100 µM (inactive) |  | > 100 µM (inactive) | > 100 µM (inactive) | > 100 µM (inactive) | 41.1 µM (inactive) | > 100 µM (inactive) | > 100 µM (inactive) | > 100 µM (inactive) | > 100 µM (inactive) |  | > 100 µM (inactive) |  |  | 11.7 µM (inactive) |
| Cc1cccc(/N=C/C=C(\Cl)c2ccc3ccccc3c2)c1 | 34.1 µM (inactive) | 18.1 µM (inactive) | 13.9 µM (inactive) | 16.4 µM (inactive) | 2.56 µM (inactive) | 17.5 µM (inactive) | 21 µM (inactive) | 15 µM (inactive) | 17.9 µM (inactive) | 19.1 µM (inactive) | 12.6 µM (inactive) |  | 17.1 µM (inactive) | 22.9 µM (inactive) | 21.2 µM (inactive) | 32.1 µM (inactive) | 9.46 µM (inactive) | 13.9 µM (inactive) | 16.2 µM (inactive) |
| CC1CC(N)=Nc2ccccc2N1Cc1ccccc1 (stereo not given) | 15.7 µM (inactive) | 13.9 µM (inactive) | 16.3 µM (inactive) | 15.2 µM (inactive) | 3.49 µM (inactive) | 11.6 µM (inactive) | 14.2 µM (inactive) | 12.4 µM (inactive) | 14.9 µM (inactive) | 13.3 µM (inactive) | 4.98 µM (inactive) |  | 2.22 µM (inactive) | 14.3 µM (inactive) | 14.4 µM (inactive) | 14.5 µM (inactive) | 12.6 µM (inactive) | 15.9 µM (inactive) | 21.9 µM (inactive) |
| Clc1ccc(/C(=C\c2ccccc2)Cn2ccnc2)cc1 | 13.6 µM (inactive) | 11.2 µM (inactive) | 28.9 µM (inactive) | 16.6 µM (inactive) | 21.1 µM (inactive) | 13.3 µM (inactive) | 11.5 µM (inactive) |  | 15.1 µM (inactive) | 14.4 µM (inactive) | 9.93 µM (inactive) | 21.3 µM (inactive) | 10.2 µM (inactive) | 14.3 µM (inactive) | 15.5 µM (inactive) | 17.9 µM (inactive) | 29.5 µM (inactive) | 21 µM (inactive) | 5.28 µM (inactive) |
